Laboratory results as given in patent US12611404B2, “Aza-aryl 1H-pyrazol-1-yl benzene sulfonamides” (ChemoCentryx, Inc., priority 2012, dated 2026).

Each molecule was assayed against T1, CCR(9) (Homo sapiens, UniProt P51686) (assay: serum chemotaxis (migration) assay, MOLT-4 cells in human serum, TECK). Settings: read-out: A2.
T1 construct: CCR(9)-expressing cells such as T cell line MOLT-4 cells; host or cells: MOLT-4 cells
T1 sequence (P51686 1-369): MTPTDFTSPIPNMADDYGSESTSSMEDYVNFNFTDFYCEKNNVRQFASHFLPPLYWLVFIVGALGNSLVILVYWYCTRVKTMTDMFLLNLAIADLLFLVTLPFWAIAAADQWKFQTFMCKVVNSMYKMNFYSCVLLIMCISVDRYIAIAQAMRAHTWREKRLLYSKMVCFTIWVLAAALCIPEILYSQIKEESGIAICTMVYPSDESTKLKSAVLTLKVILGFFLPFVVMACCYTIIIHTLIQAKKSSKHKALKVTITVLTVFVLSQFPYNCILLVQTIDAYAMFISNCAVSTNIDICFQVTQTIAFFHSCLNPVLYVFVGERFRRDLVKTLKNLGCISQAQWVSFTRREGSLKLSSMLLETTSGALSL
Assay type: cell-based
Method: In vitro cell chemotaxis assays can be performed (but are not limited to this format) using the 96-well microchamber (called ChemoTX™). The ChemoTX™ system is well known to those skilled in the art as a type of chemotactic/cell migration instrument. In this assay, CCR(9)-expressing cells (such as MOLT-4) are first incubated with a compound of interest, such as a possible CCR(9) antagonist at increasing concentrations. Typically, fifty thousand cells per well are used, but the amount can range from 10^3-10^6 cells per well. The chemokine ligand (for example, CCR(9) ligand TECK, typically at 50 nM (but can range from 5-100 nM)), is placed at the lower chamber and the migration apparatus is assembled. Twenty microliters of test compound-treated cells are then placed onto the membrane. Migration is allowed to take place at 37° C. for a period of time, typically 2.5 hours for CCR(9). At the end of the incubation, the number of cells that migrated across the membrane into the lower chamber is then quantified. The efficacy of a compound as an inhibitor of chemokine-mediated cell migration can be calculated as an IC50 (the concentration needed to reduce cell migration by 50%) or IC90 (for 90% inhibition).
MOLT-4 cells were obtained from the American Type Culture Collection (Manassas, VA) and cultured in RPMI tissue culture medium supplemented with 10% fetal calf serum (FCS) in a humidified 5% CO2 incubator at 37° C. Recombinant human chemokine proteins TECK was obtained from R&D Systems (Minneapolis, MN). ChemoTX® chemotaxis microchambers were purchased from Neuro Probe (Gaithersburg, MD). CyQUANT® cell proliferation kits were purchased from Molecular Probes (Eugene, Oregon). Calcium indicator dye Fluo-4 AM was purchased from Molecular Devices (Mountain View, CA).
A serum chemotaxis assay was used to determine the efficacy of potential receptor antagonists at blocking the migration mediated through chemokine receptors, such as CCR(9). This assay was performed using the ChemoTX® microchamber system with a 5-μm pore-sized polycarbonate membrane. MOLT-4 cells were collected by centrifugation at 400×g at room temperature, then suspended at 50 million/ml in human serum, containing 50 mM HEPES (final pH of 7.2). The compound being tested or an equivalent volume of its solvent (DMSO) was then added to the cell/serum mixture at a final DMSO concentration of 0.125% (v/v), and this mixture was then incubated together at 37° C. for one hour. Separately, recombinant human TECK was diluted with chemotaxis buffer (HBSS+0.1% BSA), generally spanning a range from 0.1 nM to 500 nM, after which 29 μl of diluted chemokine was placed in the lower wells of the ChemoTX® plate. The 5-μm (pore size) polycarbonate membrane was placed onto the plate, and 20 μL of the cell/compound mixture was transferred onto each well of the membrane. The plates were incubated at 37° C. for 90 minutes, after which the polycarbonate membranes were removed and 5 μl of the DNA-intercalating agent CyQUANT (Invitrogen, Carlsbad, CA) was added to the lower wells. The amount of fluorescence, corresponding to the number of migrated cells, was measured using a Spectrafluor Plus plate reader (TECAN, San Jose, CA).
The A2 values were calculated from the following equation, comparing the efficacy of the test compound with that of the DMSO-only control at equi-active chemokine levels: Log(A2)=log[drug(M)]−log [(A′/A)−1]
where A reflects the potency of the agonist in the absence of antagonist and A′ reflects the potency of the agonist in the presence of antagonist at a given concentration of drug ([drug(M)]).

`Cc1cc(NS(=O)(=O)c2ccc(C(C)(C)C)cc2)n(-c2cccc3nc(N)ccc23)n1` and `Cc1ccc2c(-n3nc(C)cc3NS(=O)(=O)c3ccc(C(C)(C)C)cc3)cccc2n1` cannot be ordered by IC50: < 500 nM for the first, < 500 nM for the second.

Compared with `Cc1cc(NS(=O)(=O)c2ccc(C(C)(C)C)cc2)n(-c2cccc3c[n+]([O-])ccc23)n1`, `Cc1cc(NS(=O)(=O)c2ccc(C(C)(C)C)cc2)n(-c2cccc3c2ccc[n+]3[O-])n1` is lower in IC50: > 2500 nM for the first, 501 to 2500 nM for the second. The second is the more potent here.

`CC(C)c1ccc(S(=O)(=O)Nc2cc(C(F)(F)F)nn2-c2cccc3cnccc23)cc1` and `CC(C)Oc1ccc(S(=O)(=O)Nc2cc(C(F)(F)F)nn2-c2cccc3cnccc23)cc1` fall in the same range of IC50: 501 to 2500 nM for the first, 501 to 2500 nM for the second.

First: COc1cnc(-n2nc(C)cc2NS(=O)(=O)c2ccc(C(C)(C)C)cc2)c2ccccc12
Second: Cc1cc(NS(=O)(=O)c2ccc(C(C)(C)C)cc2)n(-c2ncc(Cl)c3ccccc23)n1
The IC50 of the first is lower: 501 to 2500 nM for the first, > 2500 nM for the second.

First: COc1ccc(-n2nc(C)cc2NS(=O)(=O)c2ccc(C(C)(C)C)cc2)c2cccnc12
Second: CCOc1ccc(-n2nc(C)cc2NS(=O)(=O)c2ccc(C(C)(C)C)cc2)c2cccnc12
The IC50 of the first is lower: < 500 nM for the first, 501 to 2500 nM for the second. The first is the more potent here.

Compared with `CC(C)(C)c1ccc(S(=O)(=O)Nc2cc(C#N)nn2-c2cccc3ncccc23)cc1`, `Cc1cc(NS(=O)(=O)c2ccc(C(C)(C)C)cc2)n(-c2cccc3ncccc23)n1` is lower in IC50: 501 to 2500 nM for the first, < 500 nM for the second.

`Cc1cc(NS(=O)(=O)c2ccc(C(C)(C)C)cc2)n(-c2ccnc3ccccc23)n1` and `CCC(C)(C)c1ccc(S(=O)(=O)Nc2cc(C)nn2-c2cccc3ncccc23)cc1` fall in the same range of IC50: 501 to 2500 nM for the first, 501 to 2500 nM for the second.

`Cc1cc(NS(=O)(=O)c2ccc(C(C)(C)C)cc2)n(-c2ccnc3c(F)cccc23)n1` and `Cc1cc(NS(=O)(=O)c2ccc(C(C)(C)C)cc2)n(-c2ccc(F)c3ncccc23)n1` fall in the same range of IC50: 501 to 2500 nM for the first, 501 to 2500 nM for the second.

`Cc1cc(NS(=O)(=O)c2ccc(C(C)(C)C)cc2)n(-c2ccnc3cc(F)ccc23)n1` and `Cc1cc(-n2nc(C)cc2NS(=O)(=O)c2ccc(C(C)(C)C)cc2)c2cccnc2c1` fall in the same range of IC50: 501 to 2500 nM for the first, 501 to 2500 nM for the second.

`Cc1cc(NS(=O)(=O)c2ccc(OC(C)C)c(F)c2)n(-c2cccc3ncccc23)n1` and `Cc1cc(NS(=O)(=O)c2ccc(OC(C)C)cc2)n(-c2cccc3ncccc23)n1` fall in the same range of IC50: 501 to 2500 nM for the first, 501 to 2500 nM for the second.

`Cc1cc(NS(=O)(=O)c2ccc(C(C)(C)C)cc2)n(-c2cccc3cnccc23)n1` and `Cc1cc(NS(=O)(=O)c2ccc(C(C)(C)C)cc2)n(-c2cncc3ccccc23)n1` fall in the same range of IC50: 501 to 2500 nM for the first, 501 to 2500 nM for the second.

Compared with `Cc1cc(NS(=O)(=O)c2ccc(C(C)(C)C)c(F)c2)n(-c2ccc(N)c3ncccc23)n1`, `Cc1cc(NS(=O)(=O)c2ccc(C(C)(C)C)c(F)c2)n(-c2ccc(Br)c3ncccc23)n1` is lower in IC50: 501 to 2500 nM for the first, < 500 nM for the second. The second is the more potent here.

First: CC(C)Oc1ccc(S(=O)(=O)Nc2cc(C(F)(F)F)nn2-c2cccc3ncccc23)cc1
Second: CC(C)c1ccc(S(=O)(=O)Nc2cc(C(F)(F)F)nn2-c2cccc3ncccc23)cc1
The IC50 of the first is higher: > 2500 nM for the first, 501 to 2500 nM for the second. The second is the more potent here.

`Cc1cc(NS(=O)(=O)c2ccc(C(C)(C)C)cc2)n(-c2cc(N)nc3ccccc23)n1` and `Cc1cc(-n2nc(C)cc2NS(=O)(=O)c2ccc(C(C)(C)C)cc2)c2ccccc2n1` fall in the same range of IC50: 501 to 2500 nM for the first, 501 to 2500 nM for the second.

`Cc1cc(NS(=O)(=O)c2ccc(C(C)C)cc2)n(-c2cccc3ncccc23)n1` and `CC(C)c1ccc(S(=O)(=O)Nc2cc(C(F)F)nn2-c2cccc3ncccc23)cc1` fall in the same range of IC50: 501 to 2500 nM for the first, 501 to 2500 nM for the second.

`Cc1cc(NS(=O)(=O)c2ccc(C(C)(C)C)cc2)n(-c2ccc(N)c3ncccc23)n1` and `Cc1cc(NS(=O)(=O)c2ccc(C(C)(C)C)cc2)n(-c2ccc(Cl)c3ncccc23)n1` cannot be ordered by IC50: < 500 nM for the first, < 500 nM for the second.

Compared with `CC(C)(C)c1ccc(S(=O)(=O)Nc2cc(C(F)F)nn2-c2cccc3ncccc23)cc1F`, `Cc1cc(NS(=O)(=O)c2ccc(C(C)(C)C)c(F)c2)n(-c2cccc3ncccc23)n1` is lower in IC50: 501 to 2500 nM for the first, < 500 nM for the second.

First: CC(C)Oc1ccc(S(=O)(=O)Nc2cc(C(F)F)nn2-c2cccc3ncccc23)cc1
Second: CC(C)Oc1ccc(S(=O)(=O)Nc2cc(CF)nn2-c2cccc3ncccc23)cc1
The IC50 of the first is lower: < 500 nM for the first, 501 to 2500 nM for the second.

`Cc1cc(NS(=O)(=O)c2ccc(C(C)(C)C)cc2)n(-c2ccc(C#N)c3ncccc23)n1` and `Cc1cc(NS(=O)(=O)c2ccc(C(C)(C)C)cc2)n(-c2ccc(C)c3ncccc23)n1` fall in the same range of IC50: 501 to 2500 nM for the first, 501 to 2500 nM for the second.

First: Cc1cc(NS(=O)(=O)c2ccc(OCC(C)C)cc2)n(-c2cccc3ncccc23)n1
Second: Cc1cc(NS(=O)(=O)c2ccc(OC(F)(F)F)cc2)n(-c2cccc3ncccc23)n1
The IC50 of the first is higher: > 2500 nM for the first, 501 to 2500 nM for the second. The second is the more potent here.

First: Cc1cc(NS(=O)(=O)c2cc(F)c(C(C)(C)C)c(F)c2)n(-c2cccc3ncccc23)n1
Second: Cc1cc(NS(=O)(=O)c2ccc(C(C)(C)C)cc2F)n(-c2cccc3ncccc23)n1
The IC50 of the first is lower: < 500 nM for the first, 501 to 2500 nM for the second.

Compared with `Cc1cc(NS(=O)(=O)c2ccc(C(C)(C)C)c(F)c2)n(-c2cccc3nc(N)ccc23)n1`, `Cc1cc(NS(=O)(=O)c2ccc(C(C)(C)C)c(Cl)c2)n(-c2cccc3ncccc23)n1` is higher in IC50: < 500 nM for the first, 501 to 2500 nM for the second. The first is the more potent here.

`Cc1cc(NS(=O)(=O)c2ccc(C(C)C)cc2)n(-c2cccc3cnccc23)n1` and `Cc1cc(NS(=O)(=O)c2ccc(OC(C)C)cc2)n(-c2cccc3cnccc23)n1` fall in the same range of IC50: 501 to 2500 nM for the first, 501 to 2500 nM for the second.

`CC(C)(C)c1ccc(S(=O)(=O)Nc2cc(C(F)F)nn2-c2cccc3ncccc23)cc1` and `CC(C)(C)c1ccc(S(=O)(=O)Nc2cc(CF)nn2-c2cccc3ncccc23)cc1` cannot be ordered by IC50: < 500 nM for the first, < 500 nM for the second.

`Cc1cc(NS(=O)(=O)c2ccc(C(C)(C)C)cc2)n(-c2cnnc3ccccc23)n1` and `Cc1cc(NS(=O)(=O)c2ccc(C(C)(C)C)cc2)n(-c2nncc3ccccc23)n1` fall in the same range of IC50: 501 to 2500 nM for the first, 501 to 2500 nM for the second.

`Cc1cc(NS(=O)(=O)c2ccc(C(C)(C)C)cc2)n(-c2n[nH]c(=O)c3ccccc23)n1` and `Cc1cc(NS(=O)(=O)c2ccc(C(C)(C)C)cc2)n(-c2cnc(N)c3ccccc23)n1` fall in the same range of IC50: 501 to 2500 nM for the first, 501 to 2500 nM for the second.

Going from `CC(C)(C)c1ccc(S(=O)(=O)Nc2ccnn2-c2cccc3ncccc23)cc1` to `COCc1cc(NS(=O)(=O)c2ccc(C(C)(C)C)cc2)n(-c2cccc3ncccc23)n1`, the IC50 falls from > 2500 nM to < 500 nM.

`CC(C)(C)c1ccc(S(=O)(=O)Nc2cc(CF)nn2-c2cccc3ncccc23)cc1F` and `COc1ccc(-n2nc(C)cc2NS(=O)(=O)c2ccc(C(C)(C)C)c(F)c2)c2cccnc12` cannot be ordered by IC50: < 500 nM for the first, < 500 nM for the second.

`Cc1cc(NS(=O)(=O)c2ccc(C(C)(C)C)cc2)n(-c2ccc(Br)c3ncccc23)n1` and `Cc1cc(NS(=O)(=O)c2ccc(C(C)(C)C)cc2)n(-c2cccc3c(N)nccc23)n1` fall in the same range of IC50: 501 to 2500 nM for the first, 501 to 2500 nM for the second.

`Cc1cc(NS(=O)(=O)c2ccc(C(C)(C)C)cc2)n(-c2nccc3ncccc23)n1` and `Cc1cc(NS(=O)(=O)c2ccc(C(C)(C)C)cc2)n(-c2nccc3ccccc23)n1` fall in the same range of IC50: 501 to 2500 nM for the first, 501 to 2500 nM for the second.

First: Cc1cc(NS(=O)(=O)c2ccc(C(C)(C)C)c(F)c2)n(-c2ccc(C#N)c3ncccc23)n1
Second: CC(C)(C)c1ccc(S(=O)(=O)Nc2cc(C(F)(F)F)nn2-c2cccc3ncccc23)cc1
The IC50 of the first is lower: < 500 nM for the first, 501 to 2500 nM for the second.
